Measured values: ChEMBL document CHEMBL1145829, “Estrogen receptor modulators: identification and structure-activity relationships of potent ERalpha-selective tetrahydroisoquinoline ligands” (J Med Chem, 2003)

Experiments:
Estrogen receptor beta [1] = molecular target: T1, Estrogen receptor beta (Homo sapiens, UniProt Q92731)
Estrogen receptor beta [2] = molecular target: T1, Estrogen receptor beta; remark: listed apart in the source
Estrogen receptor [3] = molecular target: T2, Estrogen receptor (Homo sapiens, UniProt P03372)
T2 sequence (P03372 whole entry): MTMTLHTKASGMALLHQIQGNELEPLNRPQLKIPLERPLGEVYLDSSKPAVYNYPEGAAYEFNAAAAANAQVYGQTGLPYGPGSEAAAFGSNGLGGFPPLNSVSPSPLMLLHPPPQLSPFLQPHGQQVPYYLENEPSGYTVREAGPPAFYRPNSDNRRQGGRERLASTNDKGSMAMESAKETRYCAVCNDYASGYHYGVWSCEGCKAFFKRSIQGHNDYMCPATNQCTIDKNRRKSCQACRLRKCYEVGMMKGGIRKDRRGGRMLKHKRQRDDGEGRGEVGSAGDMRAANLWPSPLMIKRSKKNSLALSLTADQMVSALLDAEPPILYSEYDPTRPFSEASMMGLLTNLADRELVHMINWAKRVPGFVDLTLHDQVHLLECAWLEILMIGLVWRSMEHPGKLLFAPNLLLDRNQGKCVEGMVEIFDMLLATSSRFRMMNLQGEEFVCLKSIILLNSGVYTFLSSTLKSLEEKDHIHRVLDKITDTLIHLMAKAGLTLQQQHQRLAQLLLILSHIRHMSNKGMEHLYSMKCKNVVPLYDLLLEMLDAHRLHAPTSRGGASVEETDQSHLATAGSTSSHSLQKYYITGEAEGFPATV

MCF7 [4] = tested on: MCF7
MCF7 [5] = assay: cells; conditions: Homo sapiens
MCF7 [6] = assay: cells; conditions: Homo sapiens; remark: listed apart in the source
[7] = Total clearance value was tested after peroral administration (5 mg/kg ) in conscious rat; type: ADME, organism-based; conditions: in vivo, po
Rattus norvegicus = assay: Maximal blood concentration after peroral administration (dose normalized) (5 mg/kg) in conscious rat; type: ADME, organism-based; design: dose 5 mg/kg, route oral; conditions: in vivo, po
[8] = Terminal half life was tested after peroral administration (5 mg/kg) in conscious rat; type: ADME, organism-based; conditions: in vivo, po
in vivo = conditions: rat, po, 5 mg/kg
MCF7 [9] = tested on: MCF7; remark: listed apart in the source
Estrogen receptor [10] = molecular target: T2, Estrogen receptor; assay: Inhibition of estrogen receptor alpha mediated transcriptional activation
Estrogen receptor [11] = molecular target: T2, Estrogen receptor; remark: listed apart in the source

| SMILES | IC50 (Estrogen receptor beta [1]) | IC50 (Estrogen receptor beta [2]) | IC50 (Estrogen receptor [3]) | Agonism (MCF7 [4]) | EC50 (MCF7 [5]) | IC50 (MCF7 [6]) | CL/F [7] | Cmax (Rattus norvegicus) | half-life [8] | bioavailability (in vivo) | EC50 (MCF7 [9]) | IC50 (Estrogen receptor [10]) | IC50 (Estrogen receptor [11]) |
| --- | --- | --- | --- | --- | --- | --- | --- | --- | --- | --- | --- | --- | --- |
| CC1(c2ccc(OCCN3CCCC3)cc2)c2ccc(O)cc2CCN1c1cccc(Cl)c1 (centres undefined) | 106 nM | 272 nM | 66 nM | 20% | < 0.1 nM | 7 nM |  |  |  |  |  |  |  |
| Cl.Oc1ccc2c(c1)CC[C@H](c1ccccc1)[C@@H]2c1ccc(OCCN2CCCC2)cc1 |  |  |  |  | 0.02 nM |  | 55.7 mL/min/kg | 15.5 nM | 5.2 h | 38% |  |  |  |
| CCC(=C(c1ccc(O)cc1)c1ccc(OCCN(C)C)cc1)c1ccccc1 |  |  |  | 31% | 0.12 nM | 8.5 nM |  |  |  |  |  |  |  |
| CC1(c2ccc(OCCN3CCCCC3)cc2)c2ccc(O)cc2CCN1c1ccc(Cl)cc1 (centres undefined) | 552 nM | 396 nM | 35 nM | 8% | < 0.1 nM | 5.2 nM |  |  |  |  |  |  |  |
| Oc1ccc2c(c1)CCN(c1ccccc1)C2c1ccc(F)cc1 (centres undefined) |  |  |  |  | 1 nM |  |  |  |  |  |  |  |  |
| Oc1ccc2c(c1)CCN(c1ccccc1)C2c1ccc(OCCN2CCCCC2)cc1 (centres undefined) |  |  |  |  |  |  | 51.9 mL/min/kg | 31 nM | 3.5 h | 42% | < 0.15 pnM |  |  |
| CC(C)c1ccc(N2CCc3cc(O)ccc3C2(C)c2ccc(OCCN3CCCCC3)cc2)cc1 (centres undefined) | 4780 nM | 3690 nM | 71 nM | 14% | < 0.1 nM | 3.4 nM |  |  |  |  |  |  |  |
| Cc1ccc(N2CCc3cc(O)ccc3C2(C)c2ccc(OCCN3CCCC3)cc2)cc1 (centres undefined) | 448 nM | 354 nM | 31 nM | 14% | < 0.1 nM | 4.1 nM |  |  |  |  |  | 3.5 nM |  |
| CC1(c2ccc(OCCN3CCCC3)cc2)c2ccc(O)cc2CCN1c1ccc(Cl)cc1 (centres undefined) | 531 nM | 302 nM | 27 nM | 10% | < 0.1 nM | 6.2 nM |  |  |  |  |  |  | 3.3 nM |
| CN(C)c1cccc(N2CCc3cc(O)ccc3C2(C)c2ccc(OCCN3CCCCC3)cc2)c1 (centres undefined) | 2180 nM | 3110 nM | 71 nM | 18% | < 0.5 nM | 36 nM |  |  |  |  |  |  | 19.8 nM |
| CC(C)c1ccc(N2CCc3cc(O)ccc3C2(C)c2ccc(OCCN3CCCC3)cc2)cc1 (centres undefined) | 4970 nM | 1970 nM | 44 nM | 10% | < 0.1 nM | 3.2 nM |  |  |  |  |  |  |  |
| CC1(c2ccc(OCCN3CCCCC3)cc2)c2ccc(O)cc2CCN1c1cccc(Cl)c1 (centres undefined) | 159 nM | 284 nM | 49 nM | 18% | < 0.1 nM | 8 nM |  |  |  |  |  |  |  |
| CC1(c2ccc(OCCN3CCCC3)cc2)c2ccc(O)cc2CCN1c1ccccc1 (centres undefined) | 83 nM | 227 nM | 38 nM |  |  |  |  |  |  |  |  |  |  |
| CC1(c2ccc(OCCN3CCCC3)cc2)c2ccc(O)cc2CCN1c1cccc(F)c1 (centres undefined) | 198 nM | 123 nM | 39 nM | 5% | < 0.1 nM | 3.8 nM |  |  |  |  |  |  |  |
| CC/C(=C(\c1ccccc1)c1ccc(OCCN(C)C)cc1)c1ccccc1 [TAMOXIFEN] |  |  |  |  | 10 nM |  |  |  |  |  |  |  |  |
| CC1(c2ccc(OCCN3CCCC3)cc2)c2ccc(O)cc2CCN1c1ccc(F)cc1 (centres undefined) | 82 nM | 204 nM | 31 nM | 16% | < 0.1 nM | 3.5 nM | 45.2 mL/min/kg | 20 nM | 8.6 h | 53% |  |  |  |
| Cl.O=C(c1ccc(OCCN2CCCCC2)cc1)c1c(-c2ccc(O)cc2)sc2cc(O)ccc12 [RALOXIFENE HYDROCHLORIDE] |  |  |  |  | 0.02 nM |  | 158 mL/min/kg | 7.5 nM | 1.7 h |  |  |  |  |
| CC1(c2ccc(OCCN3CCCC3)cc2)c2ccc(O)cc2CCN1c1cccc(O)c1 (centres undefined) | 33 nM | 190 nM |  | 15% | < 0.5 nM | 2 nM | 130 mL/min/kg | 5.3 nM | 5.9 h | 15% |  |  |  |
| Oc1ccc2c(c1)CCN(c1ccccc1)C2c1ccc(OCCN2CCCC2)cc1 (centres undefined) | 291 nM | 166 nM | 21 nM | 34% | < 0.1 nM | 29 nM | 55 mL/min/kg | 55 nM | 3 h | 73% |  |  | 10.7 nM |
| CN(C)c1cccc(N2CCc3cc(O)ccc3C2(C)c2ccc(OCCN3CCCC3)cc2)c1 (centres undefined) | 2970 nM | 2200 nM | 94 nM | 19% | < 0.5 nM | 32 nM |  |  |  |  |  |  | 19 nM |
| CC1(c2ccc(OCCN3CCCCC3)cc2)c2ccc(O)cc2CCN1c1ccc(F)cc1 (centres undefined) | 92 nM | 317 nM |  | 13% |  |  | 64.9 mL/min/kg | 16 nM | 7.1 h | 56% |  |  |  |
| CC1(c2ccc(OCCN3CCCCCC3)cc2)c2ccc(O)cc2CCN1c1ccccc1 (centres undefined) | 80 nM | 200 nM | 56 nM | 13% | < 0.1 nM | 6 nM |  |  |  |  |  |  |  |
| Cc1ccc(N2CCc3cc(O)ccc3C2(C)c2ccc(OCCN3CCCCC3)cc2)cc1 (centres undefined) | 486 nM | 421 nM | 28 nM | 9% | < 0.1 nM | 4 nM |  |  |  |  |  |  | 2.9 nM |
| CC(C)c1cccc(N2CCc3cc(O)ccc3C2(C)c2ccc(OCCN3CCCCC3)cc2)c1 (centres undefined) | 492 nM | 1100 nM | 46 nM | 16% | < 0.4 nM | 27 nM |  |  |  |  |  |  | 16.1 nM |
| CC1(c2ccc(OCCN3CCCCC3)cc2)c2ccc(O)cc2CCN1c1ccccc1 (centres undefined) | 83 nM | 104 nM | 29 nM | 13% | < 0.1 nM | 4 nM | 116 mL/min/kg | 5.2 nM | 5.2 h | 23% |  |  |  |
| CC1(c2ccc(OCCN3CCCCC3)cc2)c2ccc(O)cc2CCN1c1cccc(O)c1 (centres undefined) | 47 nM | 304 nM | 34 nM | 10% | < 0.1 nM | 2 nM |  |  |  |  |  |  |  |
